Reference: patent US5069909A, “Transdermal administration of buprenorphine” (Cygnus Therapeutic Systems, priority 1990, dated 1991)
In brackets after ≈: the same amount, converted by molar mass. Counter-ions that a name gives are not always drawn. Like-named read-outs stand apart in the source and are kept apart here.

What was measured:
[1] = assay type: in vitro ADME, Human; settings: 32° C.; for Jskin: aqueous (deionized water) saturated solution, side-by-side cells; for increase of skin flux upon stripping (fold): stripped vs heat-separated epidermis
Experimental: (§1) Stirring was set at 200 rpm throughout the experiment. […] The samples were assayed by HPLC.
In order to determine the principal diffusional barrier of skin in transporting both base and HCl salt across the membrane, the permeating of drug through heat-separated epidermis was compared with stripped epidermis. Stripping removes most of the stratum corneum. The skin was stripped with Scotch brand cellophane tape to remove stratum corneum twenty times. Permeations of the base and the HCl salt through heat-separated epidermis and stripped epidermis from saturated aqueous solution at 32° C. are shown in Table 7.

[2] = cited from earlier work
in vitro = in vitro ADME, Human; settings: for Jskin: n=3; for Papp: human, P = J/Cs, read-out: P (permeability coefficient) (converted)
Experimental: as §1

[3] = Octanol-water partition coefficient
pKa = assay type: physicochemical
physchem = assay type: physicochemical; settings: for solubility thermodynamic: read-out: Cs
Experimental: Solubility Determination: The solubility of buprenorphine base and HCl salt in various vehicles was obtained by equilibrating a large excess of solute with the vehicle in a water-jacketed glass container. Temperature was maintained at 32° C. by a constant temperature water bath and vigorous mixing with a magnetic stirring bar. Equilibrium time for all the studies was ≥48 hr. An excess of solute was always present in the slurries. Samples were taken, filtered through glass wool-tipped pipets, and an appropriate volume of filtrate was diluted with acetonitrile and assayed by HPLC. The procedure was repeated three times and an average value calculated.

[4] = flow-through cells

With `CO[C@]12CC[C@@]3(C[C@@H]1[C@](C)(O)C(C)(C)C)[C@H]1Cc4ccc(O)c5c4[C@@]3(CCN1CC1CC1)[C@H]2O5` [Buprenorphine, (5α, 7α (s))-17-(cyclopropylmethyl)-α (1,1-dimethylethyl)-4,5-epoxy18,19-dihydro-3-hydroxy-6-methoxy-α-methyl-6,14-ethenomorphinan-7-methanol] the Jskin ([1]; epidermis) was 0.37 (0.35, 0.39) μg/cm^2 /h, the Jskin ([1]; stripped epidermis) was 2.2 ± 0.3 μg/cm^2 /h and the “increase of skin flux upon stripping (fold)” value [1] was 6 fold. For the same compound, the “CIT (clearance, ClT)” value ([2]; Daily dose […] (i.v., tid)) was 77 ± 5 L/h, the “T1/2 β” value ([2]; Daily dose […] (i.v., tid)) was 3.1 ± 0.6 h and the Vdss ([2]; in vivo, iv) was 188 ± 35 L. The “MEC (analgesics)” value ([2]; in vivo) was 0.5 to 0.7 ng/mL, the Jskin (in vitro; equilibrium pH 5.0, 32° C.) was 0.59 ± 0.13 μg/cm^2 /h and the Jskin (in vitro; equilibrium pH 6.0, 32° C.) was 0.48 ± 0.02 μg/cm^2 /h. For the same compound, the Jskin (in vitro; equilibrium pH 7.0, 32° C.) was 0.14 ± 0.01 μg/cm^2 /h, the Jskin (in vitro; equilibrium pH 7.9, 32° C.) was 0.05 ± 0.02 μg/cm^2 /h and the Jskin (in vitro; equilibrium pH 8.7, 32° C.) was 0.03 ± 0.01 μg/cm^2 /h. It also gave a Papp (in vitro; equilibrium pH 5.0, 32° C.) of 0.242 ×10⁻⁶ cm/s, a Papp (in vitro; equilibrium pH 6.0, 32° C.) of 1.64 ×10⁻⁶ cm/s and a Papp (in vitro; equilibrium pH 7.0, 32° C.) of 6.39 ×10⁻⁶ cm/s. The Papp (in vitro; equilibrium pH 7.9, 32° C.) was 23.1 ×10⁻⁶ cm/s, the Papp (in vitro; equilibrium pH 8.7, 32° C.) was 58.3 ×10⁻⁶ cm/s and the “skin flux as a function of pH (in words)” value (in vitro; pH 8.7 to 5) was “increased as the pH was decreased to 5”. For the same compound, the “permeability coefficient as a function of pH (in words)” value (in vitro; pH raised to 8.7) was “increased as the pH was raised to 8.7”, the logP [3] was 3.09 and the pKa (pKa) was 8.4. It also gave a Solubility (physchem; Transcutol, 32° C.) of 88600 µg/mL (≈ 189000 µM), a Solubility (physchem; Water (deionized), 32° C.) of 8 µg/mL (≈ 17.1 µM) and a solubility (physchem; Water (deionized), 32° C., read-out: Solubility) of 8 µg/mL (≈ 17.1 µM). It also gave a solubility thermodynamic (physchem; equilibrium pH 5.0, 32° C.) of 692 µg/mL (≈ 1480 µM), a solubility thermodynamic (physchem; equilibrium pH 6.0, 32° C.) of 82 µg/mL (≈ 175 µM) and a solubility thermodynamic (physchem; equilibrium pH 7.0, 32° C.) of 6 µg/mL (≈ 12.8 µM). It also gave a solubility thermodynamic (physchem; equilibrium pH 7.9, 32° C.) of 0.6 µg/mL (≈ 1.28 µM), a solubility thermodynamic (physchem; equilibrium pH 8.7, 32° C.) of 0.14 µg/mL (≈ 0.299 µM) and a solubility (physchem; organic solvent or mixture, Ethanol (absolute), 32° C., read-out: Solubility) of 58400 µg/mL (≈ 125000 µM). For the same compound, the solubility (physchem; organic solvent or mixture, Isopropyl myristate, 32° C., read-out: Solubility) was 13300 µg/mL (≈ 28400 µM), the solubility (physchem; organic solvent or mixture, Propylene Glycol, 32° C., read-out: Solubility) was 5100 µg/mL (≈ 10900 µM) and the solubility (physchem; organic solvent or mixture, Propylene glycol-monolaurate, 32° C., read-out: Solubility) was 37900 µg/mL (≈ 81000 µM). The solubility (physchem; organic solvent or mixture, Transcutol, 32° C., read-out: Solubility) was 88600 µg/mL (≈ 189000 µM) and the “solubility as a function of pH (in words)” value (physchem; pH 5.0 to 8.7) was “decreases exponentially as the pH increases”.

With `CO[C@@]12CC[C@@]3(C[C@@H]1[C@](C)(O)C(C)(C)C)[C@H]1Cc4ccc(O)c5c4[C@@]3(CCN1CC1CC1)[C@H]2O5` [Buprenorphine HCl] the “skin flux from saturated solutions, comparison (in words)” value [4] was “relatively higher penetration than the base form”, the “skin flux of HCl salt vs base (in words)” value ([1]; aqueous saturated solution) was “higher than that of the base form” and the Jskin ([1]; epidermis) was 2.1 (2.4, 1.7) μg/cm^2 /h. For the same compound, the Jskin ([1]; stripped epidermis) was 20.5 ± 4.3 μg/cm^2 /h, the “increase of skin flux upon stripping (fold)” value [1] was 10 fold and the logP [3] was 2.63. The “solubility (in words)” value (physchem) was “considerably higher than the free base form's”, the Solubility (physchem; deionized water) was 12000 µg/mL and the solubility (physchem; deionized water, water) was 12000 µg/mL. It also gave a solubility (physchem; propylene glycol, organic solvent or mixture) of 22500 µg/mL.
